This passage reports IC50 results from patent US20240174634A1, “Aldehyde Dehydrogenase Inhibitors and Their Therapeutic Use” (priority 2020, published 2024).

The assay deals with T1, ALDH1A3 (Homo sapiens, UniProt P47895).
T1 sequence (P47895 1-512): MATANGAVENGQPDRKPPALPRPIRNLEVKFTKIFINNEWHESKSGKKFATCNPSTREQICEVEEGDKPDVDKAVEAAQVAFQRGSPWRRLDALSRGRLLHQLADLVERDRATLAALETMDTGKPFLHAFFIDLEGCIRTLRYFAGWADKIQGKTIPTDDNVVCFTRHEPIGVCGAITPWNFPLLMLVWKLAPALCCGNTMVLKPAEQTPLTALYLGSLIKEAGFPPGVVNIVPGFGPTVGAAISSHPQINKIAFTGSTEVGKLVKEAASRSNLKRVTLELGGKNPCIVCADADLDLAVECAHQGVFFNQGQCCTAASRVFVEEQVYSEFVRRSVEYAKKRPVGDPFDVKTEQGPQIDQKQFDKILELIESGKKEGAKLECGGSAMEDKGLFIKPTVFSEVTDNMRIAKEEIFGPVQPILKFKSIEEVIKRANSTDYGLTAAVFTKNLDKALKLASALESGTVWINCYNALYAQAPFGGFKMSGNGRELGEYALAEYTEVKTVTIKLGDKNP
The experiment in a line: ALDH1A3 cellular assay (ALDEFLUOR) in WM266.4 melanoma cells. As to conditions: WM266.4 cells; 60 min incubation; percentage of ALDH-positive cells. It counts as cell-based. Put shortly: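 WM266.4 melanoma cells, 7500 per well, incubated overnight, then 60 min at 37 °C with compound (10 μM to 0.0005 μM, 10 points) plus BAAA substrate (500 nM final), verapamil (50 μM) and Hoechst. Imaged BODIPY fluorescence per cell; EC50 from percentage of ALDH-positive cells.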
As usually defined, the IC50 is the concentration at which inhibition is half-maximal. With `CC1(c2ccccc2)COCCN1CCOc1ccc2c(c1)CCC(=O)N2` (centres unmarked) [ALDHI-2040, 6-[2-(3-methyl-3-phenyl-morpholin-4-yl)ethoxy]-3,4-dihydro-1H-quinolin-2-one], the 50% inhibitory concentration (IC50) lay in the range of 100 to 1000 nM.

The molecule `CCC1Oc2cc(OCCN3CCCC3c3cccc(F)c3)ccc2NC1=O` (centres unmarked) [ALDHI-2045, 2-ethyl-7-[2-[2-(3-fluorophenyl)pyrrolidin-1-yl]ethoxy]-4H-1,4-benzoxazin-3-one] yielded an IC50 of under 100 nM.

For `O=C1CCc2cc(OCCN3CC(F)(F)CC3c3cccc(F)c3)ccc2N1` (centres unmarked) [ALDHI-2053, 6-[2-[4,4-difluoro-2-(3-fluorophenyl)pyrrolidin-1-yl]ethoxy]-3,4-dihydro-1H-quinolin-2-one], the concentration for half-maximal inhibition (IC50) is under 100 nM.

As for `O=C1CCc2cc(OCCN3CC(F)CC3c3cccc(F)c3)ccc2N1` (centres unmarked) [ALDHI-2052, 6-[2-[4-fluoro-2-(3-fluorophenyl)pyrrolidin-1-yl]ethoxy]-3,4-dihydro-1H-quinolin-2-one], the concentration for half-maximal inhibition (IC50) was under 100 nM.

Turning to `O=C1CCc2cc(OCCN3CCCC3c3cccnc3)ccc2N1` (centres unmarked) [ALDHI-2005, 6-[2-[2-(3-pyridyl)pyrrolidin-1-yl]ethoxy]-3,4-dihydro-1H-quinolin-2-one], the IC50 was 100 to 1000 nM.

The molecule `O=C1CCc2cc(NC(=O)c3sc(N4CCOCC4)nc3-c3cccc(F)c3)ccc2N1` [ALDHI-1001, 4-(3-fluorophenyl)-2-morpholino-N-(2-oxo-3,4-dihydro-1H-quinolin-6-yl)thiazole-5-carboxamide] returned a 50% inhibitory concentration (IC50) of under 100 nM.

With `O=C1CCc2cc(NC(=O)c3scnc3-c3cccs3)ccc2N1` [ALDHI-1023, N-(2-oxo-3,4-dihydro-1H-quinolin-6-yl)-4-(2-thienyl)thiazole-5-carboxamide], the IC50 is under 100 nM.

Molecule `Cc1ccc(C2CCCN2CCOc2ccc3c(c2)CCC(=O)N3)cn1` (centres unmarked) [ALDHI-2030, 6-[2-[2-(6-methyl-3-pyridyl)pyrrolidin-1-yl]ethoxy]-3,4-dihydro-1H-quinolin-2-one] had an IC50 of 100 to 1000 nM.

As for `CC1(C)Oc2cc(OCCN3CCCC3c3cccc(F)c3)ccc2NC1=O` (centres unmarked) [ALDHI-2043, 7-[2-[2-(3-fluorophenyl)pyrrolidin-1-yl]ethoxy]-2,2-dimethyl-4H-1,4-benzoxazin-3-one], the IC50 lay in the range of 100 to 1000 nM.

For the molecule `COc1cccc(C2CCCN2CCOc2ccc3c(c2)CCC(=O)N3)c1` (centres unmarked) [ALDHI-2034, 6-[2-[2-(3-methoxyphenyl)pyrrolidin-1-yl]ethoxy]-3,4-dihydro-1H-quinolin-2-one], the IC50 is 1000 to 10000 nM.

Consider `O=C1CCc2cc(NC(=O)c3ncsc3-c3ccsc3)ccc2N1` [ALDHI-1011, N-(2-oxo-3,4-dihydro-1H-quinolin-6-yl)-5-(3-thienyl)thiazole-4-carboxamide], for which the IC50 was 1000 to 10000 nM.

`O=C1COc2cc(OCCN3CCCC3c3cccc(F)c3)ccc2N1` (centres unmarked) [ALDHI-2009, 7-[2-[2-(3-fluorophenyl)pyrrolidin-1-yl]ethoxy]-4H-1,4-benzoxazin-3-one]: the IC50 lay in the range of 100 to 1000 nM.

Molecule `O=C1CCc2cc(OCCN3CCCC3c3ccncc3)ccc2N1` (centres unmarked) [ALDHI-2004, 6-[2-[2-(4-pyridyl)pyrrolidin-1-yl]ethoxy]-3,4-dihydro-1H-quinolin-2-one] came in with a half-maximal inhibitory concentration (IC50) of 1000 to 10000 nM.

For the molecule `O=C1CCc2cc(OCCN3CCC[C@@H]3c3cccc(F)c3)ccc2N1` [ALDHI-2007, 6-[2-[(2R)-2-(3-fluorophenyl)pyrrolidin-1-yl]ethoxy]-3,4-dihydro-1H-quinolin-2-one], the IC50 was under 100 nM.

As for `O=C1CCc2cc(OCCN3CCCC3c3cccc(F)c3)c(F)cc2N1` (centres unmarked) [ALDHI-2050, 7-fluoro-6-[2-[2-(3-fluorophenyl)pyrrolidin-1-yl]ethoxy]-3,4-dihydro-1H-quinolin-2-one], the IC50 fell in the range of 100 to 1000 nM.

For `O=C1CCc2cc(NC(=O)c3ocnc3-c3cccc(F)c3)ccc2N1` [ALDHI-1019, 4-(3-fluorophenyl)-N-(2-oxo-3,4-dihydro-1H-quinolin-6-yl)oxazole-5-carboxamide], the half-inhibitory concentration (IC50) was in the range of 1000 to 10000 nM.

In turn, `O=C1CCc2cc(OCCN3C(=O)CCC3c3ccccc3)ccc2N1` (centres unmarked) [ALDHI-2051, 6-[2-(2-oxo-5-phenyl-pyrrolidin-1-yl)ethoxy]-3,4-dihydro-1H-quinolin-2-one] gave an IC50 of under 100 nM.
